For one assay, the target named is T1, Androgen receptor (Homo sapiens, UniProt P10275).
T1 sequence (P10275 whole entry): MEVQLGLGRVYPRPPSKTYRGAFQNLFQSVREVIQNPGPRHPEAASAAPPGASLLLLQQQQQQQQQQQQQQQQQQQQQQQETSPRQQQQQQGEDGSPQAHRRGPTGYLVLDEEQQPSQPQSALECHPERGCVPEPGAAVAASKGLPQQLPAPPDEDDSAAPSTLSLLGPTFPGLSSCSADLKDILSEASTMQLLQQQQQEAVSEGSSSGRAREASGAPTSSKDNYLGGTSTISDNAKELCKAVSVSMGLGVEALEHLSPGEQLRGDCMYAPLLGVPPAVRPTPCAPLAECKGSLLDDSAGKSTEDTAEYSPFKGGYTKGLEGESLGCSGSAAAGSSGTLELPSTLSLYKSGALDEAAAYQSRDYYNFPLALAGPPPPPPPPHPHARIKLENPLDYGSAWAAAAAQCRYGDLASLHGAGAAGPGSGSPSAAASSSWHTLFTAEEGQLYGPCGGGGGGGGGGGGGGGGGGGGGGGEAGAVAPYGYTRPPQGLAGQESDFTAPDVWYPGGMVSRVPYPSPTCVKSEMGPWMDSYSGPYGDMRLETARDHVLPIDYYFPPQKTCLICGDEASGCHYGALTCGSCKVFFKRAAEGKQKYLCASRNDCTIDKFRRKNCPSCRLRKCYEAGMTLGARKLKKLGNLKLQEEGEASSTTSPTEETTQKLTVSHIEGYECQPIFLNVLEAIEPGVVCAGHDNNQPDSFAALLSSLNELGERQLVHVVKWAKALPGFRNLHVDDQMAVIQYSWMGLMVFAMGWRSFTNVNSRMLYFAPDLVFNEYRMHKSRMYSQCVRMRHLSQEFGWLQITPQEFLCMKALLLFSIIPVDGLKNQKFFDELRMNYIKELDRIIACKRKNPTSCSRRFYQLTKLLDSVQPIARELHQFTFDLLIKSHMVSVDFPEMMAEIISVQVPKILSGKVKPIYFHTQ
As to the kind of experiment: Binding affinity to androgen receptor.

Another assay addresses T2, Progesterone receptor (Homo sapiens, UniProt P06401).
T2 sequence (P06401 whole entry): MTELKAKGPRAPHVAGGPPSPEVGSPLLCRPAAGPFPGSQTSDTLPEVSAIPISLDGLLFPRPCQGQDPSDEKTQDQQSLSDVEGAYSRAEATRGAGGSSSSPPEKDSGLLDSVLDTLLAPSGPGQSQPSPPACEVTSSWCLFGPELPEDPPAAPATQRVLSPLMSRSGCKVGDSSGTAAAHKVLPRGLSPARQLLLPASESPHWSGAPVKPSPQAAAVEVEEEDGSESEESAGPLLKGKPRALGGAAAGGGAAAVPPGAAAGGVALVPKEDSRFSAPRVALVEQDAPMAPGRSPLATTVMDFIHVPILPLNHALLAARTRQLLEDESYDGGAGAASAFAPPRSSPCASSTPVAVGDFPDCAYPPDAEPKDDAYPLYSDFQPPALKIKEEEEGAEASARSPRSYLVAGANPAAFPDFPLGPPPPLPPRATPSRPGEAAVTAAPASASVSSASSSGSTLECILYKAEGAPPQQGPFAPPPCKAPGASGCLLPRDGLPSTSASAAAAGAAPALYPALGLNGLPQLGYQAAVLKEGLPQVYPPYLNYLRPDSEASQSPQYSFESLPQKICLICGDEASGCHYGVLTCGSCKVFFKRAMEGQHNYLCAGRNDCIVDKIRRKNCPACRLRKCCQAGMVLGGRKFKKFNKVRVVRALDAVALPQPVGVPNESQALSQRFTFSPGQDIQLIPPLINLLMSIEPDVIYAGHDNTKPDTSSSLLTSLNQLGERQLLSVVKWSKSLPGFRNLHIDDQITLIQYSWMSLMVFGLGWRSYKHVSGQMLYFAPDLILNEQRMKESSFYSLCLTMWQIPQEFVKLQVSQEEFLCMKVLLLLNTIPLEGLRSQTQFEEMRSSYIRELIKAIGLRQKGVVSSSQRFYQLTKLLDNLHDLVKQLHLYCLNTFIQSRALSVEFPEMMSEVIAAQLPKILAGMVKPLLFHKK
The experiment in a line: Binding affinity to progesterone receptor.

For assay [1], the target named is T3, Glucocorticoid receptor (Homo sapiens, UniProt P04150).
T3 sequence (P04150 whole entry): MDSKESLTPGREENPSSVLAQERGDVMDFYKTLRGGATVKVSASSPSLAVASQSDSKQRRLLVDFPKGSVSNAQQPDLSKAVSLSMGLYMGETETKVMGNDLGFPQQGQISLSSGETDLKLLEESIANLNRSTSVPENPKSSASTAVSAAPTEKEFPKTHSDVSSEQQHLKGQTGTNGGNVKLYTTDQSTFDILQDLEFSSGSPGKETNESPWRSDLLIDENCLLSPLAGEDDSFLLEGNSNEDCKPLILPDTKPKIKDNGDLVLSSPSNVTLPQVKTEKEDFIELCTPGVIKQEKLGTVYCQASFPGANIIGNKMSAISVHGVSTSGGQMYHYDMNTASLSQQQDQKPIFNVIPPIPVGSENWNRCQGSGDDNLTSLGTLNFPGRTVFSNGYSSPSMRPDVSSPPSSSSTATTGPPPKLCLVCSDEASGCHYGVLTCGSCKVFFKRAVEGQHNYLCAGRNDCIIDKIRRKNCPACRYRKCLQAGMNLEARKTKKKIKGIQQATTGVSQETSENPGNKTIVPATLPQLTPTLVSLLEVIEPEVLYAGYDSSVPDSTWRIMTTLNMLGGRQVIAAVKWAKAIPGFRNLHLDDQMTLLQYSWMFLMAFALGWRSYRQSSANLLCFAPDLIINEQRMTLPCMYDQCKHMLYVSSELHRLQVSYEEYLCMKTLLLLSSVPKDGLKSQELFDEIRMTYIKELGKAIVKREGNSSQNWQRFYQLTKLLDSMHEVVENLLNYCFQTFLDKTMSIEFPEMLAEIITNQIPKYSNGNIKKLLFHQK

Assay [2] deals with T3, Glucocorticoid receptor. This is another data set of the same source.
Description: (§1) Binding affinity to glucocorticoid receptor
Assay [3] deals with T3, Glucocorticoid receptor. This is another data set of the same source.
Description: Agonist activity at glucocorticoid receptor in human A549 cells by NF-kappaB transrepression assay
Assay [4] deals with T3, Glucocorticoid receptor. The experiment in a line: Agonist activity at glucocorticoid receptor in human A549 cells by MMTV transactivation assay. The format is functional, cell-based.
In assay [5] the target is T3, Glucocorticoid receptor. The source holds these as a separate data set.
Description: as §1

This is an account of results in ChEMBL document CHEMBL1149655, “Non-steroidal glucocorticoid agonists: the discovery of aryl pyrazoles as A-ring mimetics” (Bioorg Med Chem Lett, 2007).

Several values for one entry are separate records, joined by “and”; a condition that tells them apart may be missing. Equal values may be shown once. Where only a bound is given, the exact number is not on record here.

The term IC50 denotes the concentration needed to halve the response being measured. Higher therefore signals weaker potency. One may read the EC50 as the concentration giving half of the maximal effect. Read a high EC50 as a need for much substance.

For the molecule `COc1ccc(F)cc1C(C)(C)C[C@](O)(CNC(=O)c1cnn(-c2ccc(F)cc2)c1N)C(F)(F)F`, the IC50 at Androgen receptor is more than 1000 nM; at Progesterone receptor it was more than 1000 nM; against Glucocorticoid receptor [1], more than 1000 nM; against Glucocorticoid receptor [2] it was 6.76 nM and 5.5 nM.
As to `CCn1nc(C)c(Br)c1C(=O)NCC(O)(CC1(C)CCCc2ccccc21)C(F)(F)F` (configuration not stated), the half-inhibitory concentration (IC50) against Glucocorticoid receptor [2] is 40.7 nM; at Glucocorticoid receptor [3], more than 1000 nM.
Molecule `CCC1(CC(O)(CNC(=O)c2cnn(-c3ccccc3)c2N)C(F)(F)F)CCCc2ccccc21` (configuration not stated) gave an EC50 at Glucocorticoid receptor [4] of 5.62 nM. For the same molecule, the IC50 on Glucocorticoid receptor [2] is 7.41 nM; at Glucocorticoid receptor [3] it was 1.66 nM.
As to `Cc1c(S(=O)(=O)NCC(O)(CC2(C)CCCc3ccccc32)C(F)(F)F)cnn1-c1ccccc1` (stereo in doubt; 17D1), inhibition against Glucocorticoid receptor [2] was half-maximal at 158 nM (IC50).
Still for that read-out and setting: the value for `Cc1c(S(=O)(=O)NCC(O)(CC2(C)CCCc3ccccc32)C(F)(F)F)cnn1-c1ccccc1` (stereo in doubt; 17D2) was 34.7 nM.
On the same count and under the same terms, the value for `Cc1c(S(=O)(=O)NCC(O)(CC2(C)CCCc3ccccc32)C(F)(F)F)cnn1-c1ccccc1` (stereo in doubt; 17D2E1) was 51.3 nM.
At Glucocorticoid receptor [4], `Cc1c(S(=O)(=O)NCC(O)(CC2(C)CCCc3ccccc32)C(F)(F)F)cnn1-c1ccccc1` (stereo in doubt; 17D2E2) had an EC50 of more than 1000 nM. Further, the figures for the 50% inhibitory concentration (IC50) at Glucocorticoid receptor [1], against Glucocorticoid receptor [2] and against Glucocorticoid receptor [3] were 309 nM, 30.2 nM and more than 1000 nM, respectively.
Turning to `Cc1c(C(=O)NCC(O)(CC2(C)CCCc3ccccc32)C(F)(F)F)cnn1-c1ccccc1` (stereo in doubt; 18D1), the IC50 is 603 nM at Glucocorticoid receptor [1], 7.59 nM at Glucocorticoid receptor [2] and 83.2 nM on Glucocorticoid receptor [3].
At Glucocorticoid receptor [4], `Cc1c(C(=O)NCC(O)(CC2(C)CCCc3ccccc32)C(F)(F)F)cnn1-c1ccccc1` (stereo in doubt; 18D1E1) gave a 50% effective concentration (EC50) of more than 1000 nM. The results for the IC50 at Glucocorticoid receptor [1], on Glucocorticoid receptor [2] and against Glucocorticoid receptor [3] were 933 nM, 9.33 nM and 49 nM, respectively.
`CC1(CC(O)(CNC(=O)c2cnn(-c3ccccc3)c2N)C(F)(F)F)CCCc2ccccc21` (stereo in doubt; 19D1E1) had an EC50 at Glucocorticoid receptor [4] of 182 nM. The half-maximal inhibitory concentration (IC50) was 5.75 nM on Glucocorticoid receptor [2] and 17 nM against Glucocorticoid receptor [3].
As to `CC1(CC(O)(CNC(=O)c2cnn(-c3ccccc3)c2N)C(F)(F)F)CCCc2ccccc21` (stereo in doubt; 19D1E2), the midpoint of the response on Glucocorticoid receptor [4], the EC50, lay at 18.2 nM. Further, the results for the IC50 against Glucocorticoid receptor [2] and against Glucocorticoid receptor [3] were 5.13 nM and 5.89 nM, respectively.
Turning to `CCC1(CC(O)(CNC(=O)c2cnn(-c3ccc(F)cc3)c2N)C(F)(F)F)CCCc2ccccc21` (stereo in doubt; 21D1E1), the EC50 on Glucocorticoid receptor [4] is 7.76 nM. For the same molecule, the IC50 against Glucocorticoid receptor [2] was 20 nM; against Glucocorticoid receptor [3], 3.63 nM.
Taken in the same sequence, the figures for `CCC1(CC(O)(CNC(=O)c2cnn(-c3ccc(F)cc3)c2N)C(F)(F)F)CCCc2ccccc21` (stereo in doubt; 21D1E2) were 10.7 nM, 9.77 nM and 3.02 nM.
At Glucocorticoid receptor [4], `CCC1(CC(O)(CNC(=O)c2cnn(-c3ccc(F)cc3F)c2N)C(F)(F)F)CCCc2ccccc21` (stereo in doubt; 22D1E1) gave an EC50 of 14.5 nM. Moreover, the IC50 is more than 1000 nM at Glucocorticoid receptor [1] and 6.46 nM on Glucocorticoid receptor [3]. Besides, at Glucocorticoid receptor [5], the “Log IC50” value is listed as -8.33.
On to `CCC1(CC(O)(CNC(=O)c2cnn(-c3ccc(F)cc3F)c2N)C(F)(F)F)CCCc2ccccc21` (stereo in doubt; 22D1E2), for which the EC50 on Glucocorticoid receptor [4] is 12.3 nM. In addition, the IC50 against Glucocorticoid receptor [2] is 4.68 nM; on Glucocorticoid receptor [3], 4.47 nM.
`Nc1c(C(=O)NCC(O)(CC2(C3CCCC3)CCCc3ccccc32)C(F)(F)F)cnn1-c1ccc(F)cc1F` (stereo in doubt; 23D1E1) showed an EC50 at Glucocorticoid receptor [4] of 95.5 nM. Further, the half-maximal inhibitory concentration (IC50) on Glucocorticoid receptor [1] was 275 nM; at Glucocorticoid receptor [2], 9.55 nM; at Glucocorticoid receptor [3] it was 8.51 nM.
For the molecule `Nc1c(C(=O)NCC(O)(CC2(C3CCCC3)CCCc3ccccc32)C(F)(F)F)cnn1-c1ccc(F)cc1F` (stereo in doubt; 23D1E2), the EC50 at Glucocorticoid receptor [4] is 151 nM. Besides, the concentration for half-maximal inhibition (IC50) against Glucocorticoid receptor [2] is 20.9 nM; against Glucocorticoid receptor [3], 30.2 nM.
With `Nc1c(C(=O)NCC(O)(CC2(c3cc(F)ccc3Cl)CCC2)C(F)(F)F)cnn1-c1ccccc1` (stereo in doubt; 24E1), the IC50 was more than 1000 nM on Androgen receptor, more than 1000 nM on Progesterone receptor, 4.27 nM on Glucocorticoid receptor [2] and 3.72 nM against Glucocorticoid receptor [3]. At Glucocorticoid receptor [4], the response was half-maximal at 15.1 nM (EC50).
On Glucocorticoid receptor [4], `Nc1c(C(=O)NCC(O)(CC2(c3cc(F)ccc3Cl)CCC2)C(F)(F)F)cnn1-c1ccccc1` (stereo in doubt; 24E2) showed a 50% effective concentration (EC50) of 17.4 nM. Further, the IC50 is 4.79 nM at Glucocorticoid receptor [2] and 13.2 nM against Glucocorticoid receptor [3].
